Results published in patent US20230372498A1, “PLK1 SELECTIVE DEGRADATION INDUCING COMPOUND” (UPPTHERA, priority 2020, published 2023).

Molecular target: T1, PLK1 (Homo sapiens, UniProt P53350)
T1 construct: endogenous in cells; host or cells: HeLa
Experiment: PLK1 protein degradation in HeLa cells, Western blotting (PLK1/GAPDH ratio)
Assay type: cell-based
Settings: 6 hours compound incubation; for DC50: measured only if the grade of Dmax is A or B; for Dmax: thymidine block and release, 10 points three-fold from 3 μM, PLK1 to GAPDH ratio, read-out: Dmax
Summary of the method: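 PLK1 level measured by Western blot as PLK1/GAPDH in HeLa lysates (15 μg protein per lane). Cells were blocked with 2 mM thymidine 24 h, released 4 h, and exposed 6 h to compound, 10 concentrations, 3-fold steps, top 3 μM.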

T1 sequence (P53350 whole entry): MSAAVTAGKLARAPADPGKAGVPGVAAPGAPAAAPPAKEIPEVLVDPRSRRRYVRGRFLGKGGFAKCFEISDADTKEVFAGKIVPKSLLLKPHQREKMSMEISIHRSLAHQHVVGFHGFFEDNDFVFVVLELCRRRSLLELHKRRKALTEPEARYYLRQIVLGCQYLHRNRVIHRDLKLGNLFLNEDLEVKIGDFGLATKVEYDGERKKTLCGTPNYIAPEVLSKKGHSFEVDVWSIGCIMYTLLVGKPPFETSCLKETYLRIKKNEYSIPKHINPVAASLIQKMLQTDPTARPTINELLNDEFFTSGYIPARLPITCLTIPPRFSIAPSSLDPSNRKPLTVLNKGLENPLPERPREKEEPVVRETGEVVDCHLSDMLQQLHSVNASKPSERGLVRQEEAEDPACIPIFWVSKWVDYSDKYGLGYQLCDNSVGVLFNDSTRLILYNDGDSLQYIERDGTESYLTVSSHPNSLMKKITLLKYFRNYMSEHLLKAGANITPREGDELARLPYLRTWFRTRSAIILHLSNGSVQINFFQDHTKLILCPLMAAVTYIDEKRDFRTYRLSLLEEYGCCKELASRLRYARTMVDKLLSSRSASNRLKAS

| SMILES | DC50 [nM] | Dmax [%] |
| --- | --- | --- |
| COc1cc(C(=O)N[C@H]2CCN(C(=O)CCC(=O)N3CCN(c4cccc5c4C(=O)N(C4CCC(=O)NC4=O)C5=O)CC3)C2)c(F)cc1Nc1ncc2c(n1)N(C1CCCC1)CC(F)(F)C(=O)N2C (stereo partly drawn) [Compound 140, 4-((9-cyclopentyl-7,7-difluoro-5-methyl-6-oxo-6,7,8,9-tetrahydro-5H-pyrimido[4,5-b][1,4]diazepin-2-yl)amino)-N-((3S)-1-(4-(4-(2-(2,6-dioxopiperidin-3-yl)-1,3-dioxoisoindolin-4-yl)piperazin-1-yl)-4-oxobutanoyl)pyrrolidin-3-yl)-2-fluoro-5-methoxybenzamide] | ≤ 50 | ≥ 80 |
| COc1cc(C(=O)NC2CCN(C(=O)CCN3CCN(c4ccc5c(c4)C(=O)N(C4CCC(=O)NC4=O)C5=O)CC3)CC2)c(F)cc1Nc1ncc2c(n1)N(C1CCCC1)CC(F)(F)C(=O)N2C (stereo not drawn) [Compound 74, 4-((9-cyclopentyl-7,7-difluoro-5-methyl-6-oxo-6,7,8,9-tetrahydro-5H-pyrimido[4,5-b][1,4]diazepin-2-yl)amino)-N-(1-(3-(4-(2-(2,6-dioxopiperidin-3-yl)-1,3-dioxoisoindolin-5-yl)piperazin-1-yl)propanoyl)piperidin-4-yl)-2-fluoro-5-methoxybenzamide] | ≤ 50 | ≥ 80 |
| COc1cc(C(=O)NC2CCN(CCCOCCCCNc3cccc4c3C(=O)N(C3CCC(=O)NC3=O)C4=O)CC2)c(F)cc1Nc1ncc2c(n1)N(C1CCCC1)CC(F)(F)C(=O)N2C (stereo not drawn) [Compound 20, 4-((9-cyclopentyl-7,7-difluoro-5-methyl-6-oxo-6,7,8,9-tetrahydro-5H-pyrimido[4,5-b][1,4]diazepin-2-yl)amino)-N-(1-(3-(4-((2-(2,6-dioxopiperidin-3-yl)-1,3-dioxoisoindolin-4-yl)amino)butoxy)propyl)piperidin-4-yl)-2-fluoro-5-methoxybenzamide] |  | < 60 |
| COc1cc(C(=O)N[C@H]2CCN(C(=O)COCCOCCOCCOCCNc3cccc4c3C(=O)N(C3CCC(=O)NC3=O)C4=O)C2)c(F)cc1Nc1ncc2c(n1)N(C1CCCC1)CC(F)(F)C(=O)N2C (stereo partly drawn) [Compound 116, 4-((9-cyclopentyl-7,7-difluoro-5-methyl-6-oxo-6,7,8,9-tetrahydro-5H-pyrimido[4,5-b][1,4]diazepin-2-yl)amino)-N-((3S)-1-(14-((2-(2,6-dioxopiperidin-3-yl)-1,3-dioxoisoindolin-4-yl)amino)-3,6,9,12-tetraoxatetradecanoyl)pyrrolidin-3-yl)-2-fluoro-5-methoxybenzamide] | ≤ 50 | ≥ 80 |
| COc1cc(C(=O)NC2CCN(CCOCCOCCNc3cccc4c3CN(C3CCC(=O)NC3=O)C4=O)CC2)c(F)cc1Nc1ncc2c(n1)N(C1CCCC1)CC(F)(F)C(=O)N2C (stereo not drawn) [Compound 75, 4-((9-cyclopentyl-7,7-difluoro-5-methyl-6-oxo-6,7,8,9-tetrahydro-5H-pyrimido[4,5-b][1,4]diazepin-2-yl)amino)-N-(1-(2-(2-(2-((2-(2,6-dioxopiperidin-3-yl)-1-oxoisoindolin-4-yl)amino)ethoxy)ethoxy)ethyl)piperidin-4-yl)-2-fluoro-5-methoxybenzamide] | ≤ 50 | ≥ 80 |
| COc1cc(C(=O)N[C@H]2CCN(C(=O)CCCC(=O)N3CCN(c4ccc5c(c4)C(=O)N(C4CCC(=O)NC4=O)C5=O)CC3)C2)c(F)cc1Nc1ncc2c(n1)N(C1CCCC1)CC(F)(F)C(=O)N2C (stereo partly drawn) [Compound 147, 4-((9-cyclopentyl-7,7-difluoro-5-methyl-6-oxo-6,7,8,9-tetrahydro-5H-pyrimido[4,5-b][1,4]diazepin-2-yl)amino)-N-((3S)-1-(5-(4-(2-(2,6-dioxopiperidin-3-yl)-1,3-dioxoisoindolin-5-yl)piperazin-1-yl)-5-oxopentanoyl)pyrrolidin-3-yl)-2-fluoro-5-methoxybenzamide] | ≤ 500 | 60 to 80 |
| COc1cc(C(=O)N[C@H]2CCN(C(=O)CCN3CCN(c4cccc5c4C(=O)N(C4CCC(=O)NC4=O)C5=O)CC3)C2)c(F)cc1Nc1ncc2c(n1)N(C1CCCC1)CC(F)(F)C(=O)N2C (stereo partly drawn) [Compound 131, 4-((9-cyclopentyl-7,7-difluoro-5-methyl-6-oxo-6,7,8,9-tetrahydro-5H-pyrimido[4,5-b][1,4]diazepin-2-yl)amino)-N-((3S)-1-(3-(4-(2-(2,6-dioxopiperidin-3-yl)-1,3-dioxoisoindolin-4-yl)piperazin-1-yl)propanoyl)pyrrolidin-3-yl)-2-fluoro-5-methoxybenzamide] | ≤ 50 | ≥ 80 |
| COc1cc(C(=O)N[C@H]2CCN(C(=O)CCC(=O)N3CCN(c4cccc5c4C(=O)N(C4CCC(=O)NC4=O)C5=O)CC3)C2)ccc1Nc1ncc2c(n1)N(C1CCCC1)CC(F)(F)C(=O)N2C (stereo partly drawn) [Compound 141, 4-((9-cyclopentyl-7,7-difluoro-5-methyl-6-oxo-6,7,8,9-tetrahydro-5H-pyrimido[4,5-b][1,4]diazepin-2-yl)amino)-N-((3S)-1-(4-(4-(2-(2,6-dioxopiperidin-3-yl)-1,3-dioxoisoindolin-4-yl)piperazin-1-yl)-4-oxobutanoyl)pyrrolidin-3-yl)-3-methoxybenzamide] | ≤ 50 | ≥ 80 |
| COc1cc(C(=O)NCCCOCCCOCCNc2cccc3c2C(=O)N(C2CCC(=O)NC2=O)C3=O)ccc1Nc1ncc2c(n1)N(C1CCCC1)CC(F)(F)C(=O)N2C (stereo not drawn) [Example 169, 4-((9-cyclopentyl-7,7-difluoro-5-methyl-6-oxo-6,7,8,9-tetrahydro-5H-pyrimido[4,5-b][1,4]diazepin-2-yl)amino)-N-(3-(3-(2-((2-(2,6-dioxopiperidin-3-yl)-1,3-dioxoisoindolin-4-yl)amino)ethoxy)propoxy)propyl)-3-methoxybenzamide] |  | ≥ 80 |

Second part, the compound after the results:

| DC50 [nM] | Dmax [%] | SMILES |
| --- | --- | --- |
| ≤ 500 | 60 to 80 | CN1C(=O)C(F)(F)CN(C2CCCC2)c2nc(Nc3cc(F)c(C(=O)NC4CCN(CCOCCOCCNc5cccc6c5C(=O)N(C5CCC(=O)NC5=O)C6=O)CC4)cc3OC(F)(F)F)ncc21 (stereo not drawn) [Example 99, 4-((9-cyclopentyl-7,7-difluoro-5-methyl-6-oxo-6,7,8,9-tetrahydro-5H-pyrimido[4,5-b][1,4]diazepin-2-yl)amino)-N-(1-(2-(2-(2-((2-(2,6-dioxopiperidin-3-yl)-1,3-dioxoisoindolin-4-yl)amino)ethoxy)ethoxy)ethyl)piperidin-4-yl)-2-fluoro-5-(trifluoromethoxy)benzamide] |
| ≤ 500 | 60 to 80 | COc1cc(C(=O)NC2CCN(CCCCCCNc3cccc4c3C(=O)N(C3CCC(=O)NC3=O)C4=O)CC2)c(F)cc1Nc1ncc2c(n1)N(C1CCCC1)CC(F)(F)C(=O)N2C (stereo not drawn) [Compound 10, 4-((9-cyclopentyl-7,7-difluoro-5-methyl-6-oxo-6,7,8,9-tetrahydro-5H-pyrimido[4,5-b][1,4]diazepin-2-yl)amino)-N-(1-(6-((2-(2,6-dioxopiperidin-3-yl)-1,3-dioxoisoindolin-4-yl)amino)hexyl)piperidin-4-yl)-2-fluoro-5-methoxybenzamide] |
| ≤ 500 | 60 to 80 | COc1cc(C(=O)NC2CCCN(CCOCCNc3cccc4c3C(=O)N(C3CCC(=O)NC3=O)C4=O)C2)c(F)cc1Nc1ncc2c(n1)N(C1CCCC1)CC(F)(F)C(=O)N2C (stereo not drawn) [Example 105, 4-((9-cyclopentyl-7,7-difluoro-5-methyl-6-oxo-6,7,8,9-tetrahydro-5H-pyrimido[4,5-b][1,4]diazepin-2-yl)amino)-N-(1-(2-(2-((2-(2,6-dioxopiperidin-3-yl)-1,3-dioxoisoindolin-4-yl)amino)ethoxy)ethyl)piperidin-3-yl)-2-fluoro-5-methoxybenzamide] |
| ≤ 500 | 60 to 80 | COc1cc(C(=O)NC2CCN(CCOCCNC(=O)COc3cccc4c3C(=O)N(C3CCC(=O)NC3=O)C4=O)CC2)c(F)cc1Nc1ncc2c(n1)N(C1CCCC1)CC(F)(F)C(=O)N2C (stereo not drawn) [Compound 56, 4-((9-cyclopentyl-7,7-difluoro-5-methyl-6-oxo-6,7,8,9-tetrahydro-5H-pyrimido[4,5-b][1,4]diazepin-2-yl)amino)-N-(1-(2-(2-(2-((2-(2,6-dioxopiperidin-3-yl)-1,3-dioxoisoindolin-4-yl)oxy)acetamido)ethoxy)ethyl)piperidin-4-yl)-2-fluoro-5-methoxybenzamide] |
| ≤ 500 | 60 to 80 | COc1cc(C(=O)NC2CCN(CCOCCCCCCCCOCC(=O)Nc3cccc4c3C(=O)N(C3CCC(=O)NC3=O)C4=O)CC2)c(F)cc1Nc1ncc2c(n1)N(C1CCCC1)CC(F)(F)C(=O)N2C (stereo not drawn) [Compound 28, 4-((9-cyclopentyl-7,7-difluoro-5-methyl-6-oxo-6,7,8,9-tetrahydro-5H-pyrimido[4,5-b][1,4]diazepin-2-yl)amino)-N-(1-(2-((8-(2-((2-(2,6-dioxopiperidin-3-yl)-1,3-dioxoisoindolin-4-yl)amino)-2-oxoethoxy)octyl)oxy)ethyl)piperidin-4-yl)-2-fluoro-5-methoxybenzamide] |
| ≤ 50 | ≥ 80 | COc1cc(C(=O)NC2CCN(CCC(=O)NCCCCCCCNC(=O)COc3cccc4c3C(=O)N(C3CCC(=O)NC3=O)C4=O)CC2)c(F)cc1Nc1ncc2c(n1)N(C1CCCC1)CC(F)(F)C(=O)N2C (stereo not drawn) [Compound 60, 4-((9-cyclopentyl-7,7-difluoro-5-methyl-6-oxo-6,7,8,9-tetrahydro-5H-pyrimido[4,5-b][1,4]diazepin-2-yl)amino)-N-(1-(3-((7-(2-((2-(2,6-dioxopiperidin-3-yl)-1,3-dioxoisoindolin-4-yl)oxy)acetamido)heptyl)amino)-3-oxopropyl)piperidin-4-yl)-2-fluoro-5-methoxybenzamide] |
| ≤ 50 | ≥ 80 | COc1cc(C(=O)N[C@H]2CCN(C(=O)COCCOCCNc3cccc4c3C(=O)N(C3CCC(=O)NC3=O)C4=O)C2)c(F)cc1Nc1ncc2c(n1)N(C1CCCC1)CC(F)(F)C(=O)N2C (stereo partly drawn) [Compound 115, 4-((9-cyclopentyl-7,7-difluoro-5-methyl-6-oxo-6,7,8,9-tetrahydro-5H-pyrimido[4,5-b][1,4]diazepin-2-yl)amino)-N-((3S)-1-(2-(2-(2-((2-(2,6-dioxopiperidin-3-yl)-1,3-dioxoisoindolin-4-yl)amino)ethoxy)ethoxy)acetyl)pyrrolidin-3-yl)-2-fluoro-5-methoxybenzamide] |
